System: AML/MDS patients
Test: Response assessment (ELN AML / modified IWG MDS criteria): ORR, DCR
Format: in vivo, human
Description: All patients underwent baseline disease assessments at screening (peripheral blood and bone marrow (BM)). Efficacy was assessed according to the blast percentage in a peripheral blood and BM aspirate sample, measurement of absolute neutrophil count, measurement of platelet count, and red cell transfusion requirement according to the European LeukemiaNet[37] response criteria for AML and the modified IWG response criteria for MDS[38]. Response criteria used are summarized in Supplementary Table 4.
Response assessments (peripheral blood and BM) were performed at Cycle 2 Day 1 (pre-dose), Cycle 4 Day 1 (pre-dose) and repeated every 3 cycles thereafter or when clinically indicated. Patients who completed 12 months of study treatment and had not experienced progressive disease (PD) underwent response assessment every 5 cycles until PD was confirmed. Efficacy endpoints were: Objective response rate (ORR), defined as the number of patients with CR, CRi, MLFS, MR or PR divided by the total number of patients in the cohort/group; Disease control rate (DCR), defined as the number of patients with CR, CRi, MLFS, MR, PR or unchanged disease for at least three cycles (considered to have stable disease (SD)) divided by the total number of patients in the cohort/group; Overall survival (OS), defined as (date of death or censoring) – (date of the first study treatment) +1. Censoring date was the last date the patient was known to be alive; Event free survival (EFS), defined as (earliest of date of death, date of progression or date of censoring) – (date of the first study treatment) +1, with event defined as death or progression. Patients who started a new anti-cancer treatment before documented progression were censored at the date of the last assessment prior to start of non-protocol treatment. […] Patients who were alive without documented progression on the last day of contact were censored at the date of the last assessment.

With `Nc1nc(Nc2ccc3c(c2)CC[C@@H](N2CCCC2)CC3)nn1-c1cc2c(nn1)-c1ccccc1CCC2` [Bemcentinib] the CR (DE 200/100 mg, N=4) was 0 n (%), the CRi (DE 200/100 mg, N=4) was 0 n (%) and the MLFS (DE 200/100 mg, N=4) was 0 n (%). For the same compound, the “MR (marrow response)” value (DE 200/100 mg, N=4) was 0 n (%), the “NE (not evaluable)” value (DE 200/100 mg, N=4) was 1 (25%) n (%) and the Non-Responder (DE 200/100 mg, N=4) was 4 (100%) n (%). For the same compound, the “PD (progressive disease)” value (DE 200/100 mg, N=4) was 1 (25%) n (%), the PR (DE 200/100 mg, N=4) was 0 n (%) and the Responder (DE 200/100 mg, N=4) was 0 (0%) n (%). The “UC (unchanged)” value (DE 200/100 mg, N=4) was 1 (25%) n (%), the CR (DE 400/100 mg, N=6) was 0 n (%) and the CRi (DE 400/100 mg, N=6) was 0 n (%). The MLFS (DE 400/100 mg, N=6) was 0 n (%), the “MR (marrow response)” value (DE 400/100 mg, N=6) was 1 (17%) n (%) and the “NE (not evaluable)” value (DE 400/100 mg, N=6) was 0 n (%). The Non-Responder (DE 400/100 mg, N=6) was 5 (83%) n (%), the “PD (progressive disease)” value (DE 400/100 mg, N=6) was 0 n (%) and the PR (DE 400/100 mg, N=6) was 0 n (%). The Responder (DE 400/100 mg, N=6) was 1 (17%) n (%), the “UC (unchanged)” value (DE 400/100 mg, N=6) was 3 (50%) n (%) and the CR (DE 400/200 mg, N=7) was 1 (14%) n (%). The CRi (DE 400/200 mg, N=7) was 1 (14%) n (%), the MLFS (DE 400/200 mg, N=7) was 0 n (%) and the “MR (marrow response)” value (DE 400/200 mg, N=7) was 0 n (%). The “NE (not evaluable)” value (DE 400/200 mg, N=7) was 1 (14%) n (%), the Non-Responder (DE 400/200 mg, N=7) was 5 (71%) n (%) and the “PD (progressive disease)” value (DE 400/200 mg, N=7) was 1 (14%) n (%). For the same compound, the PR (DE 400/200 mg, N=7) was 0 n (%), the Responder (DE 400/200 mg, N=7) was 2 (29%) n (%) and the “UC (unchanged)” value (DE 400/200 mg, N=7) was 3 (43%) n (%). For the same compound, the CR (DE 600/200 mg, N=14) was 0 n (%), the CRi (DE 600/200 mg, N=14) was 1 (7%) n (%) and the MLFS (DE 600/200 mg, N=14) was 1 (7%) n (%). For the same compound, the “MR (marrow response)” value (DE 600/200 mg, N=14) was 0 n (%), the “NE (not evaluable)” value (DE 600/200 mg, N=14) was 4 (29%) n (%) and the Non-Responder (DE 600/200 mg, N=14) was 12 (86%) n (%). For the same compound, the “PD (progressive disease)” value (DE 600/200 mg, N=14) was 3 (21%) n (%), the PR (DE 600/200 mg, N=14) was 0 n (%) and the Responder (DE 600/200 mg, N=14) was 2 (14%) n (%). The “UC (unchanged)” value (DE 600/200 mg, N=14) was 4 (29%) n (%), the CR (DE 900/300 mg, N=5) was 0 n (%) and the CRi (DE 900/300 mg, N=5) was 0 n (%). The MLFS (DE 900/300 mg, N=5) was 0 n (%), the “MR (marrow response)” value (DE 900/300 mg, N=5) was 0 n (%) and the “NE (not evaluable)” value (DE 900/300 mg, N=5) was 2 (40%) n (%). The Non-Responder (DE 900/300 mg, N=5) was 5 (100%) n (%), the “PD (progressive disease)” value (DE 900/300 mg, N=5) was 0 n (%) and the PR (DE 900/300 mg, N=5) was 0 n (%). The Responder (DE 900/300 mg, N=5) was 0 (0%) n (%), the “UC (unchanged)” value (DE 900/300 mg, N=5) was 2 (40%) n (%) and the “Median time to objective response” value (DE cohort) was 22 days. The ORR (DE cohort overall, 36 patients, monotherapy) was 14%, the ORR (DE cohort, 400/200 mg dosing group) was 29% and the CR (DE overall, N=36) was 1 (3%) n (%). For the same compound, the CRi (DE overall, N=36) was 2 (6%) n (%), the MLFS (DE overall, N=36) was 1 (3%) n (%) and the “MR (marrow response)” value (DE overall, N=36) was 1 (3%) n (%). For the same compound, the “NE (not evaluable)” value (DE overall, N=36) was 8 (22%) n (%), the Non-Responder (DE overall, N=36) was 31 (86%) n (%) and the “PD (progressive disease)” value (DE overall, N=36) was 5 (14%) n (%). For the same compound, the PR (DE overall, N=36) was 0 n (%), the Responder (DE overall, N=36) was 5 (14%) n (%) and the “UC (unchanged)” value (DE overall, N=36) was 13 (36%) n (%).

Source: article PMC11930985 (Nature Communications, 2025)
